Reference: article PMC6212786 (Nucleic Acids Research, 2018)

Test system: T4 DNA ligase
Assay: blunt-end DNA ligation assay, effect on T4 DNA ligase
Format: biochemical, bacteriophage T4
Conditions: pH 7.5

Substance: gp45: T4 sliding clamp, trimeric processivity factor for DNA polymerase
- stimulation of blunt-end ligation activity of T4 DNA ligase: did not stimulate
